Data reported in patent publication US20030148285A1, “Mammalian SIMP protein, gene sequence and uses thereof in cancer therapy” (priority 2001, published 2003).

Experiments:
[1] = tested on: B6^dom1-specific T-cells (C3H.SW target cells coated with synthetic peptides); details: previously shown; cited from earlier work
[2] = tested on: B6^dom1-specific T-cells (C3H.SW target cells coated with synthetic peptides); experiment: 51Cr release cytotoxicity assay: peptide recognition by C3H.SW anti-C57BL/6 CTLs; assay type: cell-based, mouse; details: effector to target ratio 50:1, FIG. 1
Method: Cytotoxic activity was assessed in a standard ^51Cr release assay (Pion et al., 1997. Eur. J. Immunol. 27:421-430). Target blast cells, prepared by culturing C3H.SW spleen cells (3×10^6/ml) with 5 μg/ml of Concanavalin A (Con A; Sigma Chemical Co., St-Louis, Mo.) for 48 hours, were labeled with 100 μCi Na2^51Cr (Dupont Co., Wilmington, Del.) for 90 minutes, sensitized with synthetic peptides for 90 minutes, then mixed with C3H.SW anti-C57BL/6 effector cells at a 50:1 effector to target ratio. Cells were then incubated for 4 hours at 37° C. in a humidified atmosphere of 5% CO2. Afterwards, supernatants were harvested and counted in a gamma counter. All tests were done in triplicate. Spontaneous release was below 15%. Results are expressed as a percentage of specific lysis calculated as follows: % specific lysis=100×(experimental release−spontaneous release)/(maximum release−spontaneous release).

AAPDNRETF
Recognition by B6^dom1-specific T-cells [1]: recognised by B6^dom1-specific T-cells

KAPDNRDTL [synthetic peptide; product of the putative B6^dom1 allele found in B6^dom1− strains of mice]
Recognition by B6^dom1-specific CTLs (specific lysis of peptide-coated C3H.SW targets) ([2]; peptide even at 10^−5 M): not recognised

KAPDNRETL [synthetic peptide]
Recognition by B6^dom1-specific CTLs (specific lysis of peptide-coated C3H.SW targets) ([2]; peptide at 10^−8 M): recognised more efficiently than the AAPDNRETF peptide
